Reference: the CheMixHub viscosity set

Assay: xn = mol fraction of the nth substance listed

OCCCl + CCCCOC(C)=O
viscosity [mPa·s], 101.33 kPa
Settings | x1 = 0.1068 | x1 = 0.2078 | x1 = 0.3045 | x1 = 0.4056 | x1 = 0.5002 | x1 = 0.5993 | x1 = 0.7 | x1 = 0.8008 | x1 = 0.8994
298.15 K | 0.718 | 0.784 | 0.865 | 0.97 | 1.105 | 1.286 | 1.549 | 1.919 | 2.359
303.15 K | 0.669 | 0.732 | 0.801 | 0.894 | 1.013 | 1.169 | 1.391 | 1.704 | 2.106
308.15 K | 0.627 | 0.684 | 0.746 | 0.828 | 0.932 | 1.07 | 1.262 | 1.518 | 1.849

OCCCl + COC(C)=O
viscosity [mPa·s], 101.33 kPa
Settings | x1 = 0.1021 | x1 = 0.2013 | x1 = 0.3049 | x1 = 0.4029 | x1 = 0.5056 | x1 = 0.6047 | x1 = 0.7046 | x1 = 0.7987 | x1 = 0.9014
298.15 K | 0.438 | 0.501 | 0.587 | 0.691 | 0.844 | 1.039 | 1.324 | 1.688 | 2.234
303.15 K | 0.414 | 0.472 | 0.555 | 0.645 | 0.787 | 0.954 | 1.197 | 1.518 | 1.978
308.15 K | 0.392 | 0.447 | 0.519 | 0.606 | 0.726 | 0.881 | 1.094 | 1.369 | 1.762

NC=O + OCCCO
viscosity [mPa·s], 100 kPa
Settings | x1 = 0.1034 | x1 = 0.2038 | x1 = 0.3016 | x1 = 0.4021 | x1 = 0.5014 | x1 = 0.5969 | x1 = 0.7026 | x1 = 0.7996 | x1 = 0.8975
293.15 K | 38.53 | 28.29 | 19.85 | 14.09 | 10.47 | 8.232 | 6.233 | 5.198 | 4.415
298.15 K | 29.44 | 21.08 | 14.33 | 9.719 | 7.266 | 6.123 | 5.094 | 4.135 | 3.811
303.15 K | 23.41 | 16.76 | 11.34 | 7.417 | 5.776 | 4.679 | 4.163 | 3.336 | 3.213

CN1CCC[C@H]1c1cccnc1 + ClC(Cl)C(Cl)Cl
viscosity [mPa·s], 101.33 kPa
Settings | x1 = 0.1547 | x1 = 0.2569 | x1 = 0.3706 | x1 = 0.5146 | x1 = 0.5995 | x1 = 0.6384 | x1 = 0.6803 | x1 = 0.7501 | x1 = 0.868
298.15 K | 2.625 | 3.353 | 4.121 | 4.912 | 5.253 | 5.353 | 5.203 | 5.031 | 4.545
323.15 K | 1.541 | 1.905 | 2.184 | 2.425 | 2.53 | 2.632 | 2.568 | 2.497 | 2.342

NC=O + CCCCO
Settings | viscosity [mPa·s]
293.15 K, 101 kPa, x1 = 0.1093 | 3.225
298.15 K, 100 kPa, x1 = 0.09212 | 2.58
298.15 K, 100 kPa, x1 = 0.1905 | 2.67
298.15 K, 100 kPa, x1 = 0.2439 | 2.76
298.15 K, 100 kPa, x1 = 0.2798 | 2.82
298.15 K, 100 kPa, x1 = 0.3484 | 2.96
298.15 K, 100 kPa, x1 = 0.4402 | 3.17
298.15 K, 100 kPa, x1 = 0.5809 | 3.46
298.15 K, 100 kPa, x1 = 0.6667 | 3.58
298.15 K, 100 kPa, x1 = 0.7277 | 3.65
298.15 K, 100 kPa, x1 = 0.7869 | 3.66
298.15 K, 100 kPa, x1 = 0.8345 | 3.64
298.15 K, 100 kPa, x1 = 0.8771 | 3.6
298.15 K, 100 kPa, x1 = 0.9257 | 3.53
298.15 K, 100 kPa, x1 = 0.9728 | 3.43

OCCCO + C1COCCO1
viscosity [mPa·s], 100 kPa
Settings | x2 = 0.0996 | x2 = 0.2019 | x2 = 0.2972 | x2 = 0.3986 | x2 = 0.4989 | x2 = 0.5998 | x2 = 0.6951 | x2 = 0.8062 | x2 = 0.9159
293.15 K | 38.51 | 26.36 | 17.15 | 10.05 | 5.655 | 3.887 | 2.715 | 2.018 | 1.288
298.15 K | 29.32 | 20.14 | 12.96 | 8.427 | 4.847 | 3.375 | 2.402 | 1.806 | 1.145
303.15 K | 23.39 | 15.44 | 10.21 | 6.477 | 4.086 | 2.968 | 2.14 | 1.632 | 1.053

OCCCO + c1ccncc1
Settings | viscosity [mPa·s]
313.15 K, 101 kPa, x2 = 0.3 | 8.615

CCCCCCCCCCC + CCCCO
viscosity [mPa·s], 100 kPa
Settings | x1 = 0.1003 | x1 = 0.1998 | x1 = 0.3006 | x1 = 0.4 | x1 = 0.5006 | x1 = 0.6013 | x1 = 0.6989 | x1 = 0.8018 | x1 = 0.8991
293.15 K | 2.391 | – | 1.749 | 1.549 | 1.398 | – | 1.223 | – | –
298.15 K | 2.107 | – | – | 1.391 | 1.264 | 1.177 | 1.119 | – | –
303.15 K | – | – | 1.399 | 1.257 | 1.15 | 1.076 | 1.028 | 0.997 | 0.974
308.15 K | – | – | 1.261 | 1.141 | 1.05 | 0.99 | 0.949 | 0.923 | –
313.15 K | – | 1.288 | 1.141 | 1.04 | 0.964 | 0.913 | 0.879 | 0.857 | 0.838
318.15 K | – | 1.163 | 1.037 | 0.952 | 0.888 | 0.845 | 0.817 | 0.798 | 0.781
323.15 K | 1.199 | 1.054 | 0.947 | 0.874 | 0.82 | 0.785 | 0.761 | 0.746 | 0.73

COCC(C)OCC(C)O (configuration not stated) + CCO
viscosity [mPa·s], 101.33 kPa
Settings | 298.15 K | 308.15 K | 318.15 K
x1 = 0.05 | 1.237 | 1.014 | 0.84
x1 = 0.1 | 1.385 | 1.119 | 0.92
x1 = 0.1501 | 1.525 | 1.218 | 0.996
x1 = 0.2 | 1.661 | 1.32 | 1.073
x1 = 0.2501 | 1.803 | 1.421 | 1.148
x1 = 0.3 | 1.941 | 1.521 | 1.225
x1 = 0.35 | 2.081 | 1.623 | 1.301
x1 = 0.4001 | 2.216 | 1.723 | 1.379
x1 = 0.45 | 2.35 | 1.82 | 1.451
x1 = 0.5 | 2.485 | 1.916 | 1.525
x1 = 0.5497 | 2.616 | 2.006 | 1.594
x1 = 0.6 | 2.744 | 2.099 | 1.662
x1 = 0.6497 | 2.871 | 2.192 | 1.726
x1 = 0.7001 | 3.001 | 2.281 | 1.796
x1 = 0.75 | 3.125 | 2.365 | 1.857
x1 = 0.8001 | 3.241 | 2.449 | 1.922
x1 = 0.8497 | 3.359 | 2.531 | 1.979
x1 = 0.8996 | 3.472 | 2.61 | 2.036
x1 = 0.9498 | 3.579 | 2.686 | 2.09
